From patent US5288709A, “Erythromycin derivatives” (priority 1991, dated 1994)
≈ marks a conversion by molar mass, not a printed value. Where two headings read alike, the source gives them in different places.

What was measured:
Experiment in all cases: In-vitro antimicrobial activity primary screen (agar dilution MIC)
Type in all cases: cell-based
[1] = tested on: Enterobacter aerogenes ATCC 13048; conditions: Klebsiella aerogenes, Enterobacter aerogenes ATCC 13048, BHI agar, 20-24 h
How it was run: (§1)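 BHI agar dilution MIC, 35-37° C overnight (20-24 h), replicator inoculation at 1:100 or 1:10 for slow strains. Endpoint: no growth, slight haze or sparse colonies versus compound-free plate.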

[2] = tested on: Enterococcus faecium ATCC 8043; conditions: ATCC8043; Enterococcus faecium ATCC 8043; BHI agar, 20-24 h; read-out: MIC
How it was run: as §1

Escherichia coli DC-2 = conditions: Escherichia coli DC-2, BHI agar, 20-24 h
How it was run: as §1

Escherichia coli H560 = conditions: Escherichia coli H560, BHI agar, 20-24 h
How it was run: as §1

Escherichia coli JUHL = conditions: Escherichia coli JUHL, BHI agar, 20-24 h
How it was run: as §1

Escherichia coli SS = conditions: BHI agar, 20-24 h
How it was run: as §1

[3] = tested on: Klebsiella pneumoniae ATCC 8045
How it was run: as §1

[4] = tested on: Micrococcus luteus ATCC 4698; conditions: 20-24 h
How it was run: as §1

[5] = tested on: Micrococcus luteus ATCC 9341; conditions: 20-24 h
How it was run: as §1

[6] = tested on: Providencia stuartii CMX 640
How it was run: as §1

[7] = tested on: Pseudomonas aeruginosa A5007
How it was run: as §1

[8] = tested on: Pseudomonas aeruginosa BMH10; conditions: Pseudomonas aeruginosa, BMH10, 24 h, BHI agar, 20-24 h
How it was run: as §1

[9] = tested on: Pseudomonas aeruginosa K799/61; conditions: Pseudomonas aeruginosa K799/61; BHI agar, 20-24 h; read-out: MIC
How it was run: as §1

[10] = tested on: Pseudomonas aeruginosa K799/WT
How it was run: as §1

Pseudomonas cepacia 2961 = conditions: BHI agar, 20-24 h
How it was run: as §1

[11] = tested on: Staphylococcus aureus 45 RAR2; conditions: Staphylococcus aureus, 45RAR2, 24 h, BHI agar, 20-24 h
How it was run: as §1

Staphylococcus aureus 45 = conditions: BHI agar, 20-24 h
How it was run: as §1

[12] = tested on: Staphylococcus aureus 642A; conditions: BHI agar, 20-24 h, read-out: MIC
How it was run: as §1

[13] = tested on: Staphylococcus aureus A5177; conditions: Staphylococcus aureus, A5177, 24 h
How it was run: as §1

[14] = tested on: Staphylococcus aureus ATCC 6538P; conditions: ATCC6538P, BHI agar, 20-24 h
How it was run: as §1

[15] = tested on: Staphylococcus aureus NCTC 10649; conditions: NCTC10649, BHI agar, 20-24 h, read-out: MIC
How it was run: as §1

[16] = tested on: Staphylococcus epidermidis 3519; conditions: BHI agar, 20-24 h, read-out: MIC
How it was run: as §1

[17] = tested on: Streptococcus agalactiae CMX 508; conditions: 20-24 h
How it was run: as §1

[18] = tested on: Streptococcus bovis A5169; conditions: Streptococcus equinus, BHI agar, 20-24 h
How it was run: as §1

[19] = tested on: Streptococcus pyrogenes 2548 INDUC; conditions: BHI agar, 20-24 h
How it was run: as §1

[20] = tested on: Streptococcus pyrogenes EES61; conditions: BHI agar, 20-24 h, read-out: MIC
How it was run: as §1

[21] = tested on: Staphylococcus aureus CMX 553; conditions: Staphylococcus aureus, CMX553, 24 h, BHI agar, 20-24 h, read-out: MIC
How it was run: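 MIC is read as the lowest compound level yielding no growth, slight haze or sparse colonies on the inoculum spot, relative to a drug-free plate. Strains were replicator-inoculated (1:100 dilution) onto BHI agar plates holding twelve dilutions and held at 35-37 °C for 20-24 h, with erythromycin A as comparator.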

Acinetobacter SP CMX 669 = conditions: Acinetobacter, SPCMX669, 24 h
How it was run: as §1

[22] = ATCC4698, BHI agar, read-out: MIC
[23] = Micrococcus luteus, ATCC9341, 24 h, BHI agar
[24] = CMX508, BHI agar, read-out: MIC
[25] = Providencia stuartii, CMX640, 24 h
[26] = Pseudomonas aeruginosa, A5007, 24 h
[27] = Pseudomonas aeruginosa, K799/WT, 24 h
[28] = Burkholderia cepacia, 2961, 24 h

Row | SMILES | MIC [2] | MIC (Escherichia coli DC-2; DC2, read-out: MIC) | MIC (Escherichia coli H560; Escherichia coli, H560, 24 h) | MIC (Escherichia coli JUHL; read-out: MIC) | MIC (Escherichia coli SS; Escherichia coli, 24 h) | MIC [4, 22] | MIC [5, 23] | MIC [8] | MIC [9] | MIC [11] | MIC (Staphylococcus aureus 45; read-out: MIC) | MIC [12] | MIC [13] | MIC [15] | MIC [16] | MIC [17, 24] | MIC ([18]; A5169, 24 h) | MIC ([19]; read-out: MIC) | MIC [20] | MIC [21] | other results
1 | CC[C@H]1OC(=O)[C@H](C)[C@@H](O[C@H]2C[C@@](C)(OC)[C@@H](OC(N)=O)[C@H](C)O2)[C@H](C)[C@@H](O[C@@H]2O[C@H](C)C[C@H](N(C)C)[C@H]2O)[C@](C)(O)C[C@@H](C)[C@@H]2O[C@@]1(C)C(=O)[C@H]2C [Example 31, (9S)-4"-O-Aminocarbonyl-9-deoxo-11,12-dideoxy-9,12-epoxy-11-oxoerythromycinA] | 0.05 µg/mL (≈ 0.0659 µM) | 100 µg/mL (≈ 132 µM) | 50 µg/mL (≈ 65.9 µM) | 100 µg/mL (≈ 132 µM) | 0.2 µg/mL (≈ 0.264 µM) | 0.05 µg/mL (≈ 0.0659 µM) | 0.02 µg/mL (≈ 0.0264 µM) | 50 µg/mL (≈ 65.9 µM) | 1.56 µg/mL (≈ 2.06 µM) | 0.05 µg/mL (≈ 0.0659 µM) | 0.05 µg/mL (≈ 0.0659 µM) | 0.05 µg/mL (≈ 0.0659 µM) | 50 µg/mL (≈ 65.9 µM) | 0.05 µg/mL (≈ 0.0659 µM) | 0.05 µg/mL (≈ 0.0659 µM) | 0.02 µg/mL (≈ 0.0264 µM) | 0.05 µg/mL (≈ 0.0659 µM) | 0.78 µg/mL (≈ 1.03 µM) | 0.02 µg/mL (≈ 0.0264 µM) | 0.05 µg/mL (≈ 0.0659 µM) | MIC ([1]; ATCC13048, read-out: MIC): 100 µg/mL (≈ 132 µM); MIC ([3]; ATCC8045, Klebsiella pneumoniae ATCC 8045, BHI agar, 20-24 h, read-out: MIC): 100 µg/mL (≈ 132 µM); MIC ([6]; CMX640, Providencia stuartii CMX 640, BHI agar, 20-24 h, read-out: MIC): > 100 µg/mL; MIC ([7]; Pseudomonas aeruginosa A5007, BHI agar, 20-24 h, read-out: MIC): > 100 µg/mL; MIC ([10]; Pseudomonas aeruginosa K799/WT, BHI agar, 20-24 h, read-out: MIC): 100 µg/mL (≈ 132 µM); MIC (Pseudomonas cepacia 2961; Burkholderia cepacia, read-out: MIC): > 100 µg/mL; MIC ([14]; read-out: MIC): 0.05 µg/mL (≈ 0.0659 µM)
2 | CC[C@H]1OC(=O)[C@H](C)[C@@H](O[C@H]2C[C@@](C)(OC)[C@H](O)[C@H](C)O2)[C@H](C)[C@@H](O[C@@H]2O[C@H](C)C[C@H](N(C)C)[C@H]2O)[C@](C)(O)C[C@@H](C)[C@@H]2O[C@@]1(C)C(=O)[C@H]2C [Example 21, (4"R,9S)-9-Deoxo-11,12-dideoxy-9,12-epoxy-11-oxoerythromycin A] | 0.05 µg/mL (≈ 0.0698 µM) | 3.1 µg/mL (≈ 4.33 µM) | – | 1.56 µg/mL (≈ 2.18 µM) | – | 0.05 µg/mL (≈ 0.0698 µM) | ≤ 0.005 µg/mL | 12.5 µg/mL (≈ 17.5 µM) | 0.39 µg/mL (≈ 0.545 µM) | 0.2 µg/mL (≈ 0.279 µM) | 0.1 µg/mL (≈ 0.14 µM) | 0.2 µg/mL (≈ 0.279 µM) | – | 0.2 µg/mL (≈ 0.279 µM) | 0.2 µg/mL (≈ 0.279 µM) | 0.01 µg/mL (≈ 0.014 µM) | – | 1.56 µg/mL (≈ 2.18 µM) | 0.01 µg/mL (≈ 0.014 µM) | 0.2 µg/mL (≈ 0.279 µM) | MIC (Acinetobacter SP CMX 669): 0.39 µg/mL (≈ 0.545 µM); MIC ([1]; ATCC13048, 24 h): 6.2 µg/mL (≈ 8.66 µM); MIC (Escherichia coli H560; read-out: MIC): 0.78 µg/mL (≈ 1.09 µM); MIC (Escherichia coli SS; read-out: MIC): 0.1 µg/mL (≈ 0.14 µM); MIC ([3]; Klebsiella pneumoniae, ATCC8045, 24 h): 1.56 µg/mL (≈ 2.18 µM); MIC [6, 25]: > 100 µg/mL; MIC [7, 26]: > 100 µg/mL; MIC [10, 27]: 100 µg/mL (≈ 140 µM); MIC (Pseudomonas cepacia 2961; [28]): > 100 µg/mL; MIC ([13]; Staphylococcus aureus A5177, BHI agar, 20-24 h): 1.56 µg/mL (≈ 2.18 µM); MIC ([14]; Staphylococcus aureus, 24 h): 0.2 µg/mL (≈ 0.279 µM); MIC ([18]; read-out: MIC): 0.01 µg/mL (≈ 0.014 µM)
3 | CC[C@H]1OC(=O)[C@H](C)[C@@H](O[C@H]2C[C@@](C)(OC)[C@@H](O)[C@H](C)O2)[C@H](C)[C@@H](O[C@@H]2O[C@H](C)C[C@H](N(C)C)[C@H]2O)[C@](C)(OC)C[C@@H](C)[C@@H]2O[C@@]1(C)[C@@H](O)[C@H]2C [Example 28A] | 0.05 µg/mL (≈ 0.0683 µM) | – | 25 µg/mL (≈ 34.2 µM) | – | 0.2 µg/mL (≈ 0.273 µM) | – | – | 50 µg/mL (≈ 68.3 µM) | 0.78 µg/mL (≈ 1.07 µM) | 0.2 µg/mL (≈ 0.273 µM) | – | 0.2 µg/mL (≈ 0.273 µM) | 0.2 µg/mL (≈ 0.273 µM) | 0.2 µg/mL (≈ 0.273 µM) | 0.2 µg/mL (≈ 0.273 µM) | – | 0.02 µg/mL (≈ 0.0273 µM) | – | 0.02 µg/mL (≈ 0.0273 µM) | 0.2 µg/mL (≈ 0.273 µM) | MIC (Acinetobacter SP CMX 669; Acinetobacter SP CMX 669, BHI agar, 20-24 h): 6.2 µg/mL (≈ 8.47 µM); MIC ([1]; ATCC13048, 24 h): 50 µg/mL (≈ 68.3 µM); MIC (Escherichia coli DC-2; Escherichia coli, DC2, 24 h): 25 µg/mL (≈ 34.2 µM); MIC (Escherichia coli JUHL; Escherichia coli, 24 h): 25 µg/mL (≈ 34.2 µM); MIC ([4]; Micrococcus luteus, ATCC4698, 24 h, BHI agar): 0.1 µg/mL (≈ 0.137 µM); MIC ([5]; ATCC9341, BHI agar, read-out: MIC): 0.05 µg/mL (≈ 0.0683 µM); MIC [6, 25]: > 100 µg/mL; MIC [7, 26]: > 100 µg/mL; MIC [10, 27]: > 100 µg/mL; MIC (Pseudomonas cepacia 2961; [28]): > 100 µg/mL; MIC (Staphylococcus aureus 45; Staphylococcus aureus, 45, 24 h): 3.1 µg/mL (≈ 4.24 µM); MIC ([14]; Staphylococcus aureus, 24 h): 0.2 µg/mL (≈ 0.273 µM); MIC ([17]; Streptococcus agalactiae, CMX508, 24 h, BHI agar): 0.05 µg/mL (≈ 0.0683 µM); MIC ([19]; Streptococcus, 2548INDUC, 24 h): 3.1 µg/mL (≈ 4.24 µM)
